Test results from patent publication US20260116921A1, “PEPTIDE INHIBITORS OF INTERLEUKIN-23 RECEPTOR AND THEIR USE TO TREAT INFLAMMATORY DISEASES” (priority 2018, published 2026).
Read-outs that look alike come from different tables or passages of the source. Bridge positions count the residues as written; N and C are the ends. Square brackets hold non-standard residues; d marks the D form. Peptide text beside a SMILES is read from it. Trp(7-Me) = Cc1cccc2c(C[C@H](N)C(=O)O)c[nH]c12; 2Nal = N[C@@H](Cc1ccc2ccccc2c1)C(=O)O; AEF = NCCOc1ccc(C[C@H](N)C(=O)O)cc1; Cit = NC(=O)NCCC[C@H](N)C(=O)O; Pen = CC(C)(S)[C@H](N)C(=O)O; αMeK = C[C@](N)(CCCCN)C(=O)O; Aib = CC(C)(N)C(=O)O; βAla = NCCC(=O)O

Tests used:
[1] = in vitro; conditions: human, pH 6.8; for half-life at 20 μM: 20% fecal homogenate (supernatant), anaerobic
[2] = molecular target: T1, IL-23R (Homo sapiens, UniProt Q5VWK5); assay: DB cells IL23R pSTAT3 cell assay (pStat3 HTRF); format: cell-based
T1 sequence (Q5VWK5 24-629): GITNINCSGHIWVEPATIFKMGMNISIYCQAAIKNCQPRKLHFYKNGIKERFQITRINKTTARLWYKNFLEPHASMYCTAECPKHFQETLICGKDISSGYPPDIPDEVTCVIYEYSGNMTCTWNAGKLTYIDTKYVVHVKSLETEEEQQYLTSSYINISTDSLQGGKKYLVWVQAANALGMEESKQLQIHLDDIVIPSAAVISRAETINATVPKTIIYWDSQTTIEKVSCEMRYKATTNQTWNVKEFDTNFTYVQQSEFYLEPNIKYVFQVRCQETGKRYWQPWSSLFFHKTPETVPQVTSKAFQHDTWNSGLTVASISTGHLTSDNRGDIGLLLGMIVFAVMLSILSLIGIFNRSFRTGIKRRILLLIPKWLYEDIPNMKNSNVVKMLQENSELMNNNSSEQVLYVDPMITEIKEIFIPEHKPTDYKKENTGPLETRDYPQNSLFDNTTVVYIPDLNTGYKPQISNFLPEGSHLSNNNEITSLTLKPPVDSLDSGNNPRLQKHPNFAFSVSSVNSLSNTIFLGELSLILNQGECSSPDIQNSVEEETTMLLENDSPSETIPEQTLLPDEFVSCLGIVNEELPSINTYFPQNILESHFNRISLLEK
Outline: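 DB cells (5×10E5/well, RPMI-1640 + 10% FBS) stimulated with 0.5 nM final IL-23 plus serially diluted test peptides for 30 min at 37 °C, 5% CO2. Phospho-STAT3 (Tyr705) in lysates measured by HTRF using a two-plate protocol.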

[3] = in vitro; conditions: both, SD, rat; for half-life at 20 μM: plasma (EDTA)
Description: Peptides of interest (20 μM) were incubated with pre-warmed rat plasma (SD rat, mixed gender pooled, EDTA, filtered through 0.22 μm, BioreclamationIVT) at 37° C. […] Quenched samples were stored at 4° C. until the end of the experiment and centrifuged at 4,000 rpm for 10 minutes. The supernatant were diluted 1:1 with deionized water and analyzed using LC-MS. Percentage remaining at each time point was calculated based on the peak area ratio (analyte over internal standard) relative to the initial level at time zero. Half-lives were calculated by fitting to a first-order exponential decay equation using GraphPad.

[4] = in vitro; conditions: cynomolgus monkey, pH 6.8; for half-life at 20 μM: 20% fecal homogenate (supernatant), anaerobic
Description: Fecal homogenate (20%) was prepared by adding 4 mL of growth medium (1 liter contains 2 g peptone water powder, 2 g yeast extract, 0.1 g NaCl, 0.04 g KH2PO4, 0.01 g CaCl2·6H2O, 0.01 g MgSO4·7H2O, 2 mL Tween 80, 0.5 g bile salts, 0.5 g L-cysteine HCl, 2 g NaHCO3, and 10 μL Vitamin K, pH adjusted to 6.8, and sterilized by filtration through a 0.22 μm filter) to every gram of feces (pooled freshly collected human or cynomolgus monkey feces). The suspension was vortexed to break up large clumps, and homogenized using a bead mill homogenizer. Centrifuged the homogenate at 2800×g for 15 min. The supernatant is taken out and used for incubations. DMSO stocks (10 mM) were first prepared for the test compounds. Incubations were performed in an anaerobic chamber conditioned at 37° C. Aliquots of the DMSO solutions were dosed into 1.0 mL aliquots of 20% fecal homogenate, which are pre-warmed to 37° C. The final test compound concentration was 20 μM. At each timepoint (0, 20 min, 1, 3, 6, or 24 hours), 100 μL aliquot of each incubation mixture is taken out and added to separate tubes containing 300 μL of 50% acetonitrile/50% methanol and an internal standard to terminate the reaction. Samples were taken out of the anaerobic chamber and stored at 4° C. until the end of the experiment. After the final timepoint is sampled, the tubes were mixed and then centrifuged at 3,000 rpm for 10 minutes. Aliquots of the supernatant were removed, diluted 1:1 into distilled water containing 0.1% formic acid, and analyzed by LC/MS/MS. Percent remaining at each timepoint was calculated based on the peak area response ratio of test to compound to internal standard. Time 0 was set to 100%, and all later timepoints were calculated relative to time 0. Half-lives were calculated by fitting to a first-order exponential decay equation using Graphpad or Excel.

[5] = Table E3, DB cells, IL-23 0.5 nM, 30 minutes at 37° C., read-out: pStat3 HTRF (IC50)

Row | SMILES | half-life at 20 μM [1] | IC50 [2, 5] | half-life at 20 μM [3] | half-life at 20 μM [4] | half-life ([1]; tissue homogenate) | half-life ([3]; plasma) | half-life ([4]; tissue homogenate) | IC50 [2]
1 | CC(=O)NCCCC[C@H](NC(=O)[C@](C)(CC(C)C)NC(=O)[C@H](Cc1ccc2ccccc2c1)NC(=O)[C@H](Cc1ccc(OCCN)cc1)NC(=O)[C@H]1NC(=O)[C@H](CCC(N)=O)NC(=O)[C@H](Cc2c[nH]c3c(C)cccc23)NC(=O)[C@H]([C@@H](C)O)NC(=O)[C@H](CC(N)=O)NC(=O)[C@@H](NC(C)=O)C(C)(C)SSC1(C)C)C(=O)N[C@H](C)C(=O)NCCC(N)=O [compound 209] | > 24 h | 1 to 10 nM | 1 h | > 24 h | – | – | – | –
2 | CC(=O)NCCCC[C@H](NC(=O)[C@](C)(CC(C)C)NC(=O)[C@H](Cc1ccc2ccccc2c1)NC(=O)[C@H](Cc1ccc(OCCN)cc1)NC(=O)[C@H]1NC(=O)[C@H](CCC(N)=O)NC(=O)[C@H](Cc2c[nH]c3c(C)cccc23)NC(=O)[C@H]([C@@H](C)O)NC(=O)[C@H](CC(N)=O)NC(=O)[C@@H](NC(C)=O)C(C)(C)SSC1(C)C)C(=O)N[C@H](CC(C)C)C(=O)NCCC(N)=O [compound 210] | > 24 h | 10 to 100 nM | < 0.3 h | > 24 h | – | – | – | –
3 | CC(=O)NCCCC[C@H](NC(=O)[C@](C)(CC(C)C)NC(=O)[C@H](Cc1ccc2ccccc2c1)NC(=O)[C@H](Cc1ccc(OCCN)cc1)NC(=O)[C@H]1NC(=O)[C@H](CCC(N)=O)NC(=O)[C@H](Cc2c[nH]c3c(C)cccc23)NC(=O)[C@H]([C@@H](C)O)NC(=O)[C@H](CC(N)=O)NC(=O)[C@@H](NC(C)=O)C(C)(C)SSC1(C)C)C(=O)N[C@H](Cc1ccccc1)C(=O)NCCC(N)=O [compound 213] | > 24 h | 10 to 100 nM | < 0.3 h | > 24 h | – | – | – | –
4 | CC(=O)NCCCC[C@H](NC(=O)[C@](C)(CC(C)C)NC(=O)[C@H](Cc1ccc2ccccc2c1)NC(=O)[C@H](Cc1ccc(OCCN)cc1)NC(=O)[C@H]1NC(=O)[C@H](CCC(N)=O)NC(=O)[C@H](Cc2c[nH]c3c(C)cccc23)NC(=O)[C@H]([C@@H](C)O)NC(=O)[C@H](CC(N)=O)NC(=O)[C@@H](NC(C)=O)C(C)(C)SSC1(C)C)C(=O)N[C@H](Cc1c[nH]cn1)C(=O)NCCC(N)=O [compound 215] | – | 1 to 10 nM | – | – | > 24 h | 2 h | > 24 h | –
5 | CC(=O)N[C@@H]1C(=O)N[C@@H](CC(N)=O)C(=O)N[C@@H]([C@@H](C)O)C(=O)N[C@@H](Cc2c[nH]c3c(C)cccc23)C(=O)N[C@@H](CCC(N)=O)C(=O)N[C@H](C(=O)N[C@@H](Cc2ccc(OCCN)cc2)C(=O)N[C@@H](Cc2ccc3ccccc3c2)C(=O)N[C@@](C)(CC(C)C)C(=O)NCC(=O)N2CCC[C@H]2C(=O)NCCC(N)=O)C(C)(C)SSC1(C)C [compound 219] | 16 h | 10 to 100 nM | 3 h | 24 h | – | – | – | –
6 | CC(=O)N[C@@H]1C(=O)N[C@@H](CC(N)=O)C(=O)N[C@@H]([C@@H](C)O)C(=O)N[C@@H](Cc2c[nH]c3c(C)cccc23)C(=O)N[C@@H](CCC(N)=O)C(=O)N[C@H](C(=O)N[C@@H](Cc2ccc(OCCN)cc2)C(=O)N[C@@H](Cc2ccc3ccccc3c2)C(=O)N[C@@](C)(CC(C)C)C(=O)NCC(=O)N2CCC[C@@H]2C(=O)NCCC(N)=O)C(C)(C)SSC1(C)C [compound 220] | > 24 h | > 100 nM | 1 h | 21 h | – | – | – | –
7 | CC(=O)NCCCC[C@H](NC(=O)[C@](C)(CCCCN)NC(=O)[C@H](Cc1ccc2ccccc2c1)NC(=O)[C@H](Cc1ccc(OCCN)cc1)NC(=O)[C@H]1NC(=O)[C@H](CCC(N)=O)NC(=O)[C@H](Cc2c[nH]c3cc(Cl)ccc23)NC(=O)[C@H]([C@@H](C)O)NC(=O)[C@H](CC(N)=O)NC(=O)[C@@H](NC(C)=O)C(C)(C)SSC1(C)C)C(=O)N[C@@H](CC(N)=O)C(=O)NCCC(N)=O [compound 228] | > 24 h | 10 to 100 nM | > 24 h | 13 h | – | – | – | –
8 | CC(=O)NCCCC[C@H](NC(=O)[C@](C)(CCCCN)NC(=O)[C@H](Cc1ccc2ccccc2c1)NC(=O)[C@H](Cc1ccc(OCCN)cc1)NC(=O)[C@H]1NC(=O)[C@H](CCC(N)=O)NC(=O)[C@H](Cc2c(C(C)(C)C)[nH]c3c(C(C)(C)C)cc(C(C)(C)C)cc23)NC(=O)[C@H]([C@@H](C)O)NC(=O)[C@H](CC(N)=O)NC(=O)[C@@H](NC(C)=O)C(C)(C)SSC1(C)C)C(=O)N[C@@H](CC(N)=O)C(=O)NCCC(N)=O [compound 233] | > 24 h | > 100 nM | > 24 h | > 24 h | – | – | – | –
9 | CC(=O)NCCCC[C@H](NC(=O)[C@](C)(CCCCN)NC(=O)[C@H](Cc1ccc2ccccc2c1)NC(=O)[C@H](Cc1ccc(OCCN)cc1)NC(=O)[C@H]1NC(=O)[C@H](CCC(N)=O)NC(=O)[C@H](Cc2c[nH]c3c(C)cccc23)NC(=O)[C@H]([C@@H](C)O)NC(=O)[C@H](CCC(N)=O)NC(=O)[C@@H](NC(C)=O)C(C)(C)SSC1(C)C)C(=O)N[C@@H](CC(N)=O)C(=O)NCCC(N)=O [compound 237] | > 24 h | 1 to 10 nM | > 24 h | 6 h | – | – | – | –
10 | CC(=O)NCCCC[C@H](NC(=O)[C@](C)(CCCCN)NC(=O)[C@H](Cc1ccc2ccccc2c1)NC(=O)[C@H](Cc1ccc(OCCN)cc1)NC(=O)[C@H]1NC(=O)C(C)(C)NC(=O)[C@H](Cc2c[nH]c3c(C)cccc23)NC(=O)[C@H]([C@@H](C)O)NC(=O)[C@H](CC(N)=O)NC(=O)[C@@H](NC(C)=O)C(C)(C)SSC1(C)C)C(=O)N[C@@H](CC(N)=O)C(=O)NCCC(N)=O [compound 241] (Ac-[Pen]NT[Trp(7-Me)][Aib][Pen][AEF][2Nal][αMeK]K(Ac)N[βAla]-NH2; disulfide 1-6) | > 24 h | 10 to 100 nM | > 24 h | 15 h | – | – | – | –
11 | CC(=O)NCCCC[C@@H]1NC(=O)[C@H](Cc2c[nH]c3c(C)cccc23)NC(=O)[C@H]([C@@H](C)O)NC(=O)[C@H](CC(N)=O)NC(=O)[C@@H](NC(C)=O)C(C)(C)SSC(C)(C)[C@@H](C(=O)N[C@@H](Cc2ccc(OCCN)cc2)C(=O)N[C@@H](Cc2ccc3ccccc3c2)C(=O)N[C@@](C)(CCCCN)C(=O)N[C@@H](CCCCNC(C)=O)C(=O)N[C@@H](CC(N)=O)C(=O)N[C@H](CC(C)C)C(N)=O)NC1=O [compound 245] | > 24 h | < 1 nM | > 24 h | > 24 h | – | – | – | –
12 | CC(=O)NCCCC[C@@H]1NC(=O)[C@H](Cc2c[nH]c3c(C)cccc23)NC(=O)[C@H]([C@@H](C)O)NC(=O)[C@H](CC(N)=O)NC(=O)[C@@H](NC(C)=O)C(C)(C)SSC(C)(C)[C@@H](C(=O)N[C@@H](Cc2ccc(OCCN)cc2)C(=O)N[C@@H](Cc2ccc3ccccc3c2)C(=O)N[C@@](C)(CCCCN)C(=O)N[C@@H](CCCCNC(C)=O)C(=O)N[C@@H](CC(N)=O)C(=O)N(C)[C@@H](CCCNC(=N)N)C(N)=O)NC1=O [compound 246] | > 24 h | 1 to 10 nM | > 24 h | > 24 h | – | – | – | –
13 | CC(=O)NCCCC[C@@H]1NC(=O)[C@H](Cc2c[nH]c3c(C)cccc23)NC(=O)[C@H]([C@@H](C)O)NC(=O)[C@H](CC(N)=O)NC(=O)[C@@H](NC(C)=O)C(C)(C)SSC(C)(C)[C@@H](C(=O)N[C@@H](Cc2ccc(OCCN)cc2)C(=O)N[C@@H](Cc2ccc3ccccc3c2)C(=O)N[C@@](C)(CCCCN)C(=O)N[C@@H](CCCCNC(C)=O)C(=O)N[C@@H](CC(N)=O)C(=O)N[C@H](CC(N)=O)Cc2ccccc2)NC1=O [compound 247] | > 24 h | – | > 24 h | > 24 h | – | – | – | 1 to 10 nM
14 | CC(=O)NCCCC[C@H](NC(=O)[C@](C)(CCCCN)NC(=O)[C@H](Cc1ccc2ccccc2c1)NC(=O)[C@H](Cc1ccc(OCCN)cc1)NC(=O)[C@H]1NC(=O)[C@H](CCCNC(N)=O)NC(=O)[C@H](Cc2c[nH]c3c(C)cccc23)NC(=O)[C@H]([C@@H](C)O)NC(=O)[C@H](CC(N)=O)NC(=O)[C@@H](NC(C)=O)C(C)(C)SSC1(C)C)C(=O)N[C@@H](CC(N)=O)C(=O)N[C@H](CCCNC(=N)N)C(N)=O [compound 256] (Ac-[Pen]NT[Trp(7-Me)][Cit][Pen][AEF][2Nal][αMeK]K(Ac)N[dR]-NH2; disulfide 1-6) | > 24 h | < 1 nM | > 24 h | > 24 h | – | – | – | –
15 | CC(=O)NCCCC[C@H](NC(=O)[C@](C)(CCCCN)NC(=O)[C@H](Cc1ccc2ccccc2c1)NC(=O)[C@H](Cc1ccc(OCCN)cc1)NC(=O)[C@H]1NC(=O)[C@H](CCCNC(N)=O)NC(=O)[C@H](Cc2c[nH]c3c(C)cccc23)NC(=O)[C@H]([C@@H](C)O)NC(=O)[C@H](CC(N)=O)NC(=O)[C@@H](NC(C)=O)C(C)(C)SSC1(C)C)C(=O)N[C@@H](CC(N)=O)C(=O)N[C@@H](CO)C(N)=O [compound 260] (Ac-[Pen]NT[Trp(7-Me)][Cit][Pen][AEF][2Nal][αMeK]K(Ac)NS-NH2; disulfide 1-6) | 15 h | < 1 nM | > 24 h | 3 h | – | – | – | –
